Earlier results on one compound are cited in patent publication US8175817B2, “Reciprocal symmetry plots as a new representation of countercurrent chromatograms” (The Board of Trustees of the University of Illinois, priority 2007, dated 2012).

The conditions of the data set: octanol/water; extremes of the GUESSmix compounds found in the region of optimal resolution.

On to `CC(C)CCC[C@@H](C)[C@H]1CC[C@H]2[C@@H]3CC=C4C[C@@H](O)CC[C@]4(C)[C@H]3CC[C@]12C` [cholesterol], for which the “Log Koctanol/water” value is 9.52.
